Measured values from patent US7432093B2, “Soluble, functional apoptotic protease-activating factor 1 fragments” (The Trustees of Princeton University, priority 2004, dated 2008).
“Also recorded” adds a separate entry of the source.

B1: 1-469: recombinant Apaf-1 fragment, residues 1-469 of SEQ ID NO: 1 (protein, listed as Homo sapiens)
chain: MDAKARNCLLQHREALEKDIKTSYIMDHMISDGFLTISEEEKVRNEPTQQQRAAMLIKMILKKDNDSYVSFYNALLHEGYKDLAALLHDGIPVVSSSSGKDSVSGITSYVRTVLCEGGVPQRPVVFVTRKKLVNAIQQKLSKLKGEPGWVTIHGMAGCGKSVLAAEAVRDHSLLEGCFPGGVHWVSVGKQDKSGLLMKLQNLCTRLDQDESFSQRLPLNIEEAKDRLRILMLRKHPRSLLILDDVWDSWVLKAFDSQCQILLTTRDKSVTDSVMGPKYVVPVESSLGKEKGLEILSLFVNMKKADLPEQAHSIIKECKGSPLVVSLIGALLRDFPNRWEYYLKQLQNKQFKRIRKSSSYDYEALDEAMSISVEMLREDIKDYYTDLSILQKDVKVPTKVLCILWDMETEEVEDILQEFVNKSLLFCDRNGKSFRYYLHDLQVDFLTEKNCSQLQDLHKKIITQFQRYHQ
B2: 1-591: soluble human Apaf-1 fragment, residues 1-591 (SEQ ID NO: 1), expressed in E. coli BL21(DE3) with C-terminal Leu-Glu-His6 (protein, listed as Homo sapiens)
chain: MDAKARNCLLQHREALEKDIKTSYIMDHMISDGFLTISEEEKVRNEPTQQQRAAMLIKMILKKDNDSYVSFYNALLHEGYKDLAALLHDGIPVVSSSSGKDSVSGITSYVRTVLCEGGVPQRPVVFVTRKKLVNAIQQKLSKLKGEPGWVTIHGMAGCGKSVLAAEAVRDHSLLEGCFPGGVHWVSVGKQDKSGLLMKLQNLCTRLDQDESFSQRLPLNIEEAKDRLRILMLRKHPRSLLILDDVWDSWVLKAFDSQCQILLTTRDKSVTDSVMGPKYVVPVESSLGKEKGLEILSLFVNMKKADLPEQAHSIIKECKGSPLVVSLIGALLRDFPNRWEYYLKQLQNKQFKRIRKSSSYDYEALDEAMSISVEMLREDIKDYYTDLSILQKDVKVPTKVLCILWDMETEEVEDILQEFVNKSLLFCDRNGKSFRYYLHDLQVDFLTEKNCSQLQDLHKKIITQFQRYHQPHTLSPDQEDCMYWYNFLAYHMASAKMHKELCALMFSLDWIKAKTELVGPAHLIHEFVEYRHILDEKDCAVSENFQEFLSLNGHLLGRQPFPNIVQLGLCEPETSEVYQQAKLQAKQEVDNG
modifications: C-terminal Leu-Glu-His6 tag
B3: Full Length Apaf-1: full-length (ca. 140-kilodalton) human Apaf-1 protein expressed in E. coli (protein, listed as Homo sapiens)
chain: MDAKARNCLLQHREALEKDIKTSYIMDHMISDGFLTISEEEKVRNEPTQQQRAAMLIKMILKKDNDSYVSFYNALLHEGYKDLAALLHDGIPVVSSSSGKDSVSGITSYVRTVLCEGGVPQRPVVFVTRKKLVNAIQQKLSKLKGEPGWVTIHGMAGCGKSVLAAEAVRDHSLLEGCFPGGVHWVSVGKQDKSGLLMKLQNLCTRLDQDESFSQRLPLNIEEAKDRLRILMLRKHPRSLLILDDVWDSWVLKAFDSQCQILLTTRDKSVTDSVMGPKYVVPVESSLGKEKGLEILSLFVNMKKADLPEQAHSIIKECKGSPLVVSLIGALLRDFPNRWEYYLKQLQNKQFKRIRKSSSYDYEALDEAMSISVEMLREDIKDYYTDLSILQKDVKVPTKVLCILWDMETEEVEDILQEFVNKSLLFCDRNGKSFRYYLHDLQVDFLTEKNCSQLQDLHKKIITQFQRYHQPHTLSPDQEDCMYWYNFLAYHMASAKMHKELCALMFSLDWIKAKTELVGPAHLIHEFVEYRHILDEKDCAVSENFQEFLSLNGHLLGRQPFPNIVQLGLCEPETSEVYQQAKLQAKQEVDNG
B4: 94-591: recombinant Apaf-1 fragment, residues 94-591 of SEQ ID NO: 1 (protein, listed as Homo sapiens)
chain: VSSSSGKDSVSGITSYVRTVLCEGGVPQRPVVFVTRKKLVNAIQQKLSKLKGEPGWVTIHGMAGCGKSVLAAEAVRDHSLLEGCFPGGVHWVSVGKQDKSGLLMKLQNLCTRLDQDESFSQRLPLNIEEAKDRLRILMLRKHPRSLLILDDVWDSWVLKAFDSQCQILLTTRDKSVTDSVMGPKYVVPVESSLGKEKGLEILSLFVNMKKADLPEQAHSIIKECKGSPLVVSLIGALLRDFPNRWEYYLKQLQNKQFKRIRKSSSYDYEALDEAMSISVEMLREDIKDYYTDLSILQKDVKVPTKVLCILWDMETEEVEDILQEFVNKSLLFCDRNGKSFRYYLHDLQVDFLTEKNCSQLQDLHKKIITQFQRYHQPHTLSPDQEDCMYWYNFLAYHMASAKMHKELCALMFSLDWIKAKTELVGPAHLIHEFVEYRHILDEKDCAVSENFQEFLSLNGHLLGRQPFPNIVQLGLCEPETSEVYQQAKLQAKQEVDNG

Legend:
[1] = target: T1, caspase-9 activation by the soluble Apaf-1 fragment (Homo sapiens, UniProt O14727); experiment: Caspase-9 activation assay (fluorogenic, LEHD-AMC); type: biochemical; details: for Apaf-1-mediated caspase-9 activation by nucleotide with EDTA (hydrolysis blocked): 1 millimolar EDTA; for Apaf-1-mediated caspase-9 activation by nucleotide with EDTA (hydrolysis blocked) / Apaf-1-mediated caspase-9 activation by nucleotide: FIG. 6B/6C; for Apaf-1-mediated caspase-9 activation by nucleotide: Apaf-1 2 micromolar, caspase-9 0.2 micromolar, no EDTA
T1 construct: Leu-Glu-His6 (C); made in house; host or cells: Escherichia coli BL21(DE3), pET29 (both proteins)
T1 sequence (O14727 1-591): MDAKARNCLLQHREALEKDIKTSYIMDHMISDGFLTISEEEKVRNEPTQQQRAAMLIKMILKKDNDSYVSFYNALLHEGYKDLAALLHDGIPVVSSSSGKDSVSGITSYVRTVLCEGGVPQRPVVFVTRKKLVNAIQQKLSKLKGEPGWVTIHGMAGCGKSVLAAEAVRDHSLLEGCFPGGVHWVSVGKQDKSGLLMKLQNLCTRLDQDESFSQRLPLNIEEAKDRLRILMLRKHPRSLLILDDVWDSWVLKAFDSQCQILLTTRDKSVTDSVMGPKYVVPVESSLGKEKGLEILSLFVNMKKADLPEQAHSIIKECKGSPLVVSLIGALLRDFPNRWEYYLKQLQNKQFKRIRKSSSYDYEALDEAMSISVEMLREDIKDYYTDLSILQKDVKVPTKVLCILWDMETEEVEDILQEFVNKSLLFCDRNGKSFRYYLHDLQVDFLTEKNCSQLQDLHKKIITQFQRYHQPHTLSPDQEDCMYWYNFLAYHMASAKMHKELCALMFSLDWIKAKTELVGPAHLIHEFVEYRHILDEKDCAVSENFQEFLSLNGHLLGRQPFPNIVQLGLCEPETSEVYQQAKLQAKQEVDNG
T1 sequence (P55211 1-315 partner limits assumed): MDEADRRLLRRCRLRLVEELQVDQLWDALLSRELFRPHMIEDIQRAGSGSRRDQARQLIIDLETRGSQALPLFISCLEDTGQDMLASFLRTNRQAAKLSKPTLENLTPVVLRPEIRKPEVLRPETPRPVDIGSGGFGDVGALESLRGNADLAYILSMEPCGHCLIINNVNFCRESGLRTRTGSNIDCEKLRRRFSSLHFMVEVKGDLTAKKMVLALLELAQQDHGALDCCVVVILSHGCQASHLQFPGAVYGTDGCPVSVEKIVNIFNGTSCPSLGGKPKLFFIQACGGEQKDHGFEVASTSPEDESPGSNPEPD
T1 sequence (P55211 331-416 partner limits assumed): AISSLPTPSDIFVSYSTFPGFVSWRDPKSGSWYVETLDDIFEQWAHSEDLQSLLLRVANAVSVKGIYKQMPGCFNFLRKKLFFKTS
Description: A fluorogenic assay was developed to monitor caspase-9 activation by the soluble Apaf-1 fragment. […] Then, caspase-9 and Apaf-1 were added to a final volume of 200 microliter and final concentrations of 0.2 micromolar and 2 micromolar, respectively. After incubation for 5 minutes at room temperature, the caspase-9 substrate LEHD-AMC (a tetrapeptide coupled to 7-amino […]) was added to the reaction at a final concentration of 200 micromolar. The conversion of the fluorogenic substrate was then measured using a Hitachi F2500 fluorescence spectrophotometer with an excitation wavelength of 380 nanometers and a fluorescence detection wavelength of 440 nanometers.

[2] = type: physicochemical, E. coli
Description: Preferably, solubility of the fragment is assessed in a lysate of a bacterial culture used to produce the fragment at a concentration of at least 1 milligram per liter of bacterial culture.
All constructs for protein expression were generated using a standard PCR-based cloning strategy, and the identity of individual clones was verified by double-stranded plasmid sequencing. A soluble Apaf-1 fragment (residues 1-591, sequence (SEQ ID NO: 1) shown in FIG. 1) was over-expressed in Escherichia coli strain BL21(DE3) using plasmid vector pET29 having the nucleotide sequence described by Jiang et al. (2000, J. Biol. Chem. 275:31199-31203) operatively ligated therein. The coding sequence included an additional sequence encoding eight amino acid residues at its carboxy-terminal end (i.e., linked to residue 591 in the translated protein). These residues (Leu-Glu-His6) included a nickel-binding hexa-histidine sequence used for metal affinity chromatographic purification of the expressed protein. Soluble Apaf-1 was purified from the cell lysate using a Ni-NTA (nitrilotriacetic acid-ligated nickel; Qiagen) chromatography column. Dithiothreitol (DTT) and ethylenediamine tetraacetic acid (EDTA) were added to the eluted fraction in final concentrations of 5 millimolar each. After incubation for 30 minutes on ice, the protein solution was applied to an anion-exchange column (Source-15Q, Pharmacia) for further purification.

[3] = target: T2, soluble Apaf-1 fragment (residues 1-591) (Homo sapiens, UniProt O14727); experiment: ATPase assay (TLC, conversion of (alpha-32P)ATP to ADP); type: biochemical
T2 construct: Leu-Glu-His6 (C); made in house; host or cells: Escherichia coli BL21(DE3), pET29
T2 sequence (O14727 1-591): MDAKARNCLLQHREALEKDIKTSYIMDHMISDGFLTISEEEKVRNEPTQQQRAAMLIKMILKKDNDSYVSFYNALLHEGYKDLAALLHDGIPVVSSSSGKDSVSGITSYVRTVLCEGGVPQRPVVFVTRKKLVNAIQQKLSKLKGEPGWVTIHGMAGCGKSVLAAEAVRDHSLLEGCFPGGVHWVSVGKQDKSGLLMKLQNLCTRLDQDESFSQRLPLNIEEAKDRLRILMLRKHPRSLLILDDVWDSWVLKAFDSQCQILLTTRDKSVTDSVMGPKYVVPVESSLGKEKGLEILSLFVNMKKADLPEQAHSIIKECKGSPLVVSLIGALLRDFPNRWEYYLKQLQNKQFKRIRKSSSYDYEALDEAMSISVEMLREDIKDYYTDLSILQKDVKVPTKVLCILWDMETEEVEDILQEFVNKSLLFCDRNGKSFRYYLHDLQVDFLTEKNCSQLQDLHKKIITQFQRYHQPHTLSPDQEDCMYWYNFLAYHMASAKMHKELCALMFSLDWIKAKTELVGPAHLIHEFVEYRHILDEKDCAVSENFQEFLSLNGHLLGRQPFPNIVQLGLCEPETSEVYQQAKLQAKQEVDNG
Description: ATPase activity was determined using a thin layer chromatography (TLC) assay designed to quantitatively measure the conversion of (alpha-^32P)ATP to ADP. Reactions were initiated by mixing the soluble Apaf-1 fragment at a final concentration of 2 micromolar with a solution containing 20 millimolar HEPES, pH 7.5, 10 millimolar DTT, 10 micromolar magnesium chloride, 0.1 micromolar (alpha-^32P)ATP, and 8 micromolar ATP. The reaction was incubated at room temperature for the indicated duration and then quenched by addition of an equal volume of developing solvent (1 molar formic acid, 0.5 molar LiCl). Samples were evaluated based on the differential mobility of ATP versus ADP on TLC using polyethyleneimine-cellulose F plates.

Row | Molecule | Apaf-1-mediated caspase-9 activation by nucleotide with EDTA (hydrolysis blocked) [1] | Apaf-1-mediated caspase-9 activation by nucleotide [1] | Solubility [2] | other results
1 | Nc1nc(Cl)nc2c1ncn2[C@H]1C[C@H](O)[C@@H](COP(=O)(O)OP(=O)(O)OP(=O)(O)O)O1 [Fragment 2CdATP] | loss of this response | potent activator for caspase-9 activation |  | optimal concentration for caspase-9 activation [1]: approximately 100 micromolar
2 | Nc1ncnc2c1ncn2[C@@H]1O[C@H](COP(=O)(O)OP(=O)(O)OP(O)(O)=S)[C@@H](O)[C@H]1O [ATP-gamma-S] |  | unable to support caspase-9 activation |  | 
3 | CSc1nc(N)c2ncn([C@@H]3O[C@H](COP(=O)(O)OP(=O)(O)OP(=O)(O)O)[C@@H](O)[C@H]3O)c2n1 [APM, 2-methylthio-ATP] | abrogated this effect | supported Apaf-1-mediated caspase-9 activation |  | 
4 | Nc1ncnc2c1ncn2[C@H]1C[C@H](O)[C@@H](COP(=O)(O)OP(=O)(O)OP(=O)(O)O)O1 [dATP] | completely abolished caspase-9 activation |  |  | optimal concentration for caspase-9 activation [1]: 1 to 5 µM; Apaf-1-mediated activation of caspase-9 at higher concentrations ([1]; above the optimal range of 1-5 micromolar): reduced slightly; caspase-9 activation compared with ATP ([1]; nucleotide at 2 micromolar): greater activation of caspase-9 than did ATP
5 | Nc1ncnc2c1ncn2[C@@H]1O[C@H](COP(=O)(O)OP(=O)(O)OP(=O)(O)O)[C@@H](O)[C@H]1O [ATP] | completely abolished the positive effect of ATP | further drastically improved caspase-9 activity |  | 
6 | B1 |  |  | + | 
7 | B2 |  |  | ++++ | catalytic activity of caspase-9 in the presence of Apaf-1 ([1]; absence of ATP and of the apoptosome): significantly and reproducibly elevated; also recorded: significantly improved the caspase catalytic activity; solubility and solution behavior (in words) [2]: good solubility and solution behavior; ATPase activity (appearance of ADP on TLC) ([3]; 2 micromolar fragment, magnesium present, room temperature, FIG. 6A): exhibited ATPase activity; ATPase activity on incubation with EDTA ([3]; EDTA added (magnesium removed), FIG. 6A lane 3): abrogation of the observed ATPase activity
8 | B3 |  |  | − | 
9 | B4 |  |  | ++ | 
